Reference: ChEMBL document CHEMBL1201862, “PubChem BioAssay data set” (2004)
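Exposure lasted 48 hours, with cells grown in 96-well plates and compounds tested at five concentrations. Abbreviation: GI50, concentration required for 50% inhibition of growth.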 Active and inactive are the calls of the source. No stated cut-off is given here; in the data, active = GI50 up to about 1.1 µM and inactive = higher.

Key:
Experiment in all cases: NCI-60 cell line screen, 48 h
786-0 = test system: 786-0
A549 = test system: A549
ACHN = test system: ACHN
BT-549 = test system: BT-549
CAKI-1 = test system: CAKI-1
CCRF-CEM = test system: CCRF-CEM
COLO 205 = test system: COLO 205
DU-145 = test system: DU-145
EKVX = test system: EKVX
HCC 2998 = test system: HCC 2998
HCT-116 = test system: HCT-116
HCT-15 = test system: HCT-15
HL-60 = test system: HL-60
HOP-62 = test system: HOP-62
HOP-92 = test system: HOP-92
HT-29 = test system: HT-29
Hs-578T = test system: Hs-578T
IGROV-1 = test system: IGROV-1
K562 = test system: K562
KM12 = test system: KM12
LOX IMVI = test system: LOX IMVI
M14 = test system: M14
MCF7 = test system: MCF7
MDA-MB-231 = test system: MDA-MB-231
MDA-MB-435 = test system: MDA-MB-435
MOLT-4 = test system: MOLT-4
Malme-3M = test system: Malme-3M
NCI-H226 = test system: NCI-H226
NCI-H23 = test system: NCI-H23
NCI-H460 = test system: NCI-H460
NCI-H522 = test system: NCI-H522
NCI/ADR-RES = test system: NCI/ADR-RES
OVCAR-3 = test system: OVCAR-3
OVCAR-4 = test system: OVCAR-4
OVCAR-5 = test system: OVCAR-5
OVCAR-8 = test system: OVCAR-8
PC-3 = test system: PC-3
RPMI-8226 = test system: RPMI-8226
RXF 393 = test system: RXF 393
SF-268 = test system: SF-268
SF-295 = test system: SF-295
SK-MEL-2 = test system: SK-MEL-2
SK-MEL-5 = test system: SK-MEL-5
SK-OV-3 = test system: SK-OV-3
SN12C = test system: SN12C
SNB-19 = test system: SNB-19
SNB-75 = test system: SNB-75
SW-620 = test system: SW-620
T47D = test system: T47D
TK-10 = test system: TK-10
U-251 = test system: U-251
UACC-257 = test system: UACC-257
UACC-62 = test system: UACC-62
UO-31 = test system: UO-31

## COC(=O)[C@H](Cc1ccccc1)NP(=O)(O)OCC1C=CC(n2cc(C)c(=O)[nH]c2=O)O1 (some centres undefined)
786-0
  GI50: > 100 µM (inactive)
A549
  GI50: > 100 µM (inactive)
ACHN
  GI50: 26.3 µM (inactive)
BT-549
  GI50: > 100 µM (inactive)
CAKI-1
  GI50: > 100 µM (inactive)
CCRF-CEM
  GI50: > 100 µM (inactive)
COLO 205
  GI50: > 100 µM (inactive)
DU-145
  GI50: > 100 µM (inactive)
EKVX
  GI50: > 100 µM (inactive)
HCC 2998
  GI50: > 100 µM (inactive)
HCT-116
  GI50: > 100 µM (inactive)
HCT-15
  GI50: > 100 µM
HL-60
  GI50: > 100 µM (inactive)
HOP-62
  GI50: > 100 µM (inactive)
HOP-92
  GI50: > 100 µM (inactive)
HT-29
  GI50: > 100 µM (inactive)
Hs-578T
  GI50: > 100 µM (inactive)
IGROV-1
  GI50: > 100 µM (inactive)
K562
  GI50: > 100 µM (inactive)
KM12
  GI50: > 100 µM (inactive)
LOX IMVI
  GI50: > 100 µM (inactive)
M14
  GI50: > 100 µM (inactive)
MCF7
  GI50: > 100 µM (inactive)
MDA-MB-231
  GI50: > 100 µM (inactive)
MDA-MB-435
  GI50: > 100 µM (inactive)
MOLT-4
  GI50: > 100 µM (inactive)
Malme-3M
  GI50: > 100 µM (inactive)
NCI-H226
  GI50: > 100 µM (inactive)
NCI-H23
  GI50: > 100 µM (inactive)
NCI-H460
  GI50: > 100 µM (inactive)
NCI-H522
  GI50: > 100 µM (inactive)
NCI/ADR-RES
  GI50: > 100 µM (inactive)
OVCAR-3
  GI50: > 100 µM (inactive)
OVCAR-4
  GI50: > 100 µM (inactive)
OVCAR-5
  GI50: > 100 µM (inactive)
OVCAR-8
  GI50: > 100 µM (inactive)
PC-3
  GI50: > 100 µM (inactive)
RPMI-8226
  GI50: > 100 µM (inactive)
RXF 393
  GI50: > 100 µM (inactive)
SF-268
  GI50: > 100 µM (inactive)
SF-295
  GI50: > 100 µM (inactive)
SK-MEL-2
  GI50: > 100 µM (inactive)
SK-MEL-5
  GI50: > 100 µM (inactive)
SK-OV-3
  GI50: > 100 µM (inactive)
SN12C
  GI50: > 100 µM (inactive)
SNB-19
  GI50: > 100 µM (inactive)
SNB-75
  GI50: > 100 µM (inactive)
SW-620
  GI50: > 100 µM (inactive)
T47D
  GI50: > 100 µM (inactive)
TK-10
  GI50: > 100 µM (inactive)
U-251
  GI50: > 100 µM (inactive)
UACC-257
  GI50: > 100 µM (inactive)
UACC-62
  GI50: > 100 µM (inactive)
UO-31
  GI50: > 100 µM (inactive)
